Assay results: the NIST ThermoML archive (doi:10.1021/acs.jced.9b00696)
Numbers after ± are expanded uncertainties.

What was measured:
[1] = Crystal; DSC
[2] = Molar enthalpy of transition or fusion; conditions: Crystal; DSC

- Triple point temperature [1]: 485.01 ± 0.81 K
- Molar enthalpy of transition or fusion [2]: 7.23 ± 0.335 kcal/mol
SMILES: C[C@]12CCC3=C4CCC(=O)C=C4CC[C@H]3[C@@H]1CC[C@@]2(O)CC#N [dienogest]
